Test results taken from the NIST ThermoML archive (doi:10.1016/j.fluid.2013.07.008).

Assay: xn = mol fraction of the nth substance listed
Conditions: Capillary rise

C [methane] + CC
x1 = 1
Conditions | surface tension liquid-gas [mN/m]
93.15 K | 16.69
133.15 K | 8.78
173.15 K | 2

CC [ethane] + C
Conditions | surface tension liquid-gas [mN/m]
93.15 K, x2 = 0 | 32.9
133.15 K, x2 = 0 | 25.32
133.15 K, x2 = 0.194 | 20.74
133.15 K, x2 = 0.414 | 16.34
133.15 K, x2 = 0.527 | 14.45
133.15 K, x2 = 0.821 | 10.78
173.15 K, x2 = 0 | 18.26
173.15 K, x2 = 0.133 | 15.59
173.15 K, x2 = 0.139 | 15.37
173.15 K, x2 = 0.256 | 12.87
173.15 K, x2 = 0.421 | 9.8
173.15 K, x2 = 0.429 | 9.6
173.15 K, x2 = 0.459 | 9.07
173.15 K, x2 = 0.565 | 7.67
173.15 K, x2 = 0.587 | 7.14
173.15 K, x2 = 0.684 | 5.98
173.15 K, x2 = 0.691 | 5.79
173.15 K, x2 = 0.793 | 4.51
173.15 K, x2 = 0.818 | 4.29
173.15 K, x2 = 0.821 | 4.25
193.15 K, x2 = 0 | 15.01
193.15 K, x2 = 0.134 | 12.26
193.15 K, x2 = 0.16 | 11.62
193.15 K, x2 = 0.284 | 9.34
193.15 K, x2 = 0.287 | 9.07
193.15 K, x2 = 0.395 | 7.34
193.15 K, x2 = 0.501 | 5.47
193.15 K, x2 = 0.672 | 3.49
193.15 K, x2 = 0.685 | 3.23
213.15 K, x2 = 0 | 11.79
213.15 K, x2 = 0.024 | 11.22
213.15 K, x2 = 0.116 | 9.57
213.15 K, x2 = 0.17 | 8.6
213.15 K, x2 = 0.238 | 7.28
213.15 K, x2 = 0.447 | 4.11
213.15 K, x2 = 0.539 | 2.71
233.15 K, x2 = 0 | 8.77
233.15 K, x2 = 0.075 | 7.19
233.15 K, x2 = 0.143 | 6.06
233.15 K, x2 = 0.153 | 5.89
233.15 K, x2 = 0.214 | 4.93
233.15 K, x2 = 0.228 | 4.7
233.15 K, x2 = 0.292 | 3.63
233.15 K, x2 = 0.297 | 3.55
233.15 K, x2 = 0.362 | 2.74
233.15 K, x2 = 0.369 | 2.58
253.15 K, x2 = 0 | 5.77
253.15 K, x2 = 0.048 | 5.17
253.15 K, x2 = 0.099 | 4.4
253.15 K, x2 = 0.145 | 3.73
253.15 K, x2 = 0.196 | 2.98
253.15 K, x2 = 0.241 | 2.34
253.15 K, x2 = 0.242 | 2.28
263.15 K, x2 = 0 | 4.48
263.15 K, x2 = 0.048 | 3.82
263.15 K, x2 = 0.098 | 3.15
263.15 K, x2 = 0.142 | 2.58
263.15 K, x2 = 0.185 | 2.03
273.15 K, x2 = 0 | 3.2
273.15 K, x2 = 0.035 | 2.76
273.15 K, x2 = 0.083 | 2.19
273.15 K, x2 = 0.124 | 1.75
283.15 K, x2 = 0 | 1.96
283.15 K, x2 = 0.017 | 1.82
283.15 K, x2 = 0.045 | 1.5
283.15 K, x2 = 0.065 | 1.33
283.15 K, x2 = 0.067 | 1.29
